For series [1], the system named is HBCx-41 in vitro cultured dissociated cells. Description: In vitro treatment of ex vivo cultured dissociated cells with anti-cancer drugs, WST-1 viability. The series is classed as cell-based, human. Particulars: HBCx-41 dissociated cells, incremental concentrations, 72 h incubation. The procedure: In vitro treatments with anti-cancer drugs were performed in flat bottomed 96 well microplates. Equal number of viable cells (40 000) were distributed in each well and allowed for attachment for 3 days. […] After 72 h incubation in presence or absence of compounds, WST-1 (based on the cleavage of the tetrazolium salt by respiratory mitochondrial enzyme, Roche diagnostic) was added and incubated following manufacturer instructions. Optic density was read on a microplate reader at 450 nm. A sigmoid analytical curve gave the 50% inhibitory concentration (IC50).
For orientation: Tetrazolium dyes change colour on reduction, which living cells bring about.

The subject of series [2] is line coming from HBCx-4A. Description: Cisplatin dose response kinetic, cell viability (OD 450 nm). The note with it: HBCx-4A line on plastic. It counts as cell-based, human. The procedure:
FIG. 16A: cisplatine dose response kinetic
from top to bottom: white circle: no treatment (no tt), white square: 35 μM, white triangle (top point): 45 μM, white triangle (bottom point): 55 μM, white diamond: 65 μM, black circle: […]

In series [3] the test system is breast tumor xenograft (HBCx-4A, HBCx-16, HBCx-8, HBCx-17). Description: Cisplatin treatment in four models of breast tumor xenograft, RBD expression. It counts as in vivo, mouse. The text has this: The four models are the followings: HBCx-4A (non-responsive), HBCx-16 (responsive), HBCx-8 (responsive), HBCx-17 (responsive). […] Left histograms (FeLVC.RBD): from left to right HBCx-4A, HBCx-16, HBCx-8, HBCx-17. Right histograms (BLV.RBD): from left to right HBCx-4A, HBCx-16, HBCx-8, HBCx-17.

Series [4] concerns line coming from HBCx-4A. Description: RBD expression after in vitro cisplatin (MFI, flow cytometry). The series is classed as cell-based, human. The protocol:
FIG. 16B: PERV-A.RBD • x-axis: time in hours • y-axis: MFI (mean of fluorescent intensity)
(§1) For metabolite transporters labelling, 200 000 to 500 000 viable cells were incubated at 37° C. in RBD premix consisting in 3 μl of a RBD mouse Fc tagged plus 3 μl of a RBD rabbit Fc tagged diluted in 50 μl of CO2 independent medium and washed once before secondary staining with fluorescent conjugated antibodies against mouse (goat anti-mouse AF488, Cell Signalling Technology) and rabbit (goat anti-rabbit AF647, Cell Signalling Technology). Rat anti-mouse Pan H-2 added in a third step allowed for the discrimination between human and mouse cells.
A general note: Flow cytometry measures light scatter and fluorescence of single cells or particles in a stream.

Series [5] deals with line coming from HBCx-4A. Description: RBD expression after in vitro everolimus (MESF, flow cytometry). It counts as cell-based, human. The note with it: 0, 1, 100, 1000 nM; 6, 24, 72 h. The procedure:
(§2) FIG. 17A to 17H presents the in vitro effect of everolimus on a line coming from HBCx-4A and put on plastic in function of time.
FIGS. 17B and 17C: 6 hours after everolimus.
FIGS. 17D and 17E: 24 hours after everolimus.
FIGS. 17F to 17H: 72 hours after everolimus. […]
High sensitivity is a challenge in flow cytometry. […] To visualize thin variation of expression level in multiple channel protocol, we need one unique unit, as fluorescence arbitrary units read on the same cytometer from two different fluorophores in their own channel cannot be confronted. Molecule of Equivalent Soluble Fluorochrome (MESF) is given by regression of arbitrary fluorescence measured versus standardisation beads coated with known amounts of same fluorochrome used in cells staining (AF647 and AF488 MESF quantum beads, BangsLab) acting as intra- and interexperiments calibrator. Measured fluorescence depends on lasers power, photomultiplicator tube settings, pH of staining medium. Fluorescence measured is proportional to the number of fluorochromes linked to the antibody used, itself correlated to the number of antibody bound to specific sites. […] For RBDs, quantification of non-specific signal was determined using secondary conjugated antibody alone.

For series [6], the system named is breast tumor xenograft (HBCx-3). Description: Everolimus treatment in breast tumor xenograft, RBD expression. It counts as in vivo, mouse. The note with it: HBCx-3, 2.5 mg/kg i.p. The procedure: FIG. 12 presents the effect of an everolimus treatment (2.5 mg/kg, i.p.—intraperotoneal) in a model of breast tumor xenograft (HBCx-3) known to be responsive to everolimus treatment at short times.
Mice of example 1 have been used.
Four RBDs are studied: • Circle: Xeno.RBD • Triangle: Ampho.RBD • Diamond: FeLVC.RBD • Square: RD114.RBD
The human breast cancer specimens were obtained with informed consent from the patients undergoing surgery. Fresh tumor fragments were grafted into the interscapular fat pad of 8-12 week old female Swiss nude mice, under avertin anaesthesia. Mice were maintained in specific pathogen-free animal housing (Institut Curie, Paris, France) and received estrogen (17 mg/ml) diluted in drinking water. Xenografts appeared at the graft site 2 to 8 months after initial transplantation. They were subsequently transplanted from mouse to mouse and formally established since third in vivo passage (Marangoni, Elisabetta A new model of patient tumor-derived breast cancer xenografts for preclinical assays Clin Cancer Res. 2007 Jul. 1; 13(13):3989-98). All the experiments were performed in accordance with the UKCCCR guidelines about animal ethics in neoplasia research (British Journal of Cancer (2010) 102, 1555-1577). Present experiments were all performed in well-established tumor models and required a minimal tumor size of 600 mm^3 to collect enough cellular material. In all cases, particular attention through careful clinical examination has been paid to ensure that the recipient mice remained in a general good health to avoid as far as possible necrotic tumors. All tumors were aseptically excised from ethically sacrificed mice with autoclaved surgical material. NEDB and culture media w/o FCS are both equivalent for a short period before processing.
as §1

The test system is the same in series [7]. The note with it: HBCx-3, short times; cited from earlier work.
In series [8] the test system is line coming from HBCx-4A. Description: Everolimus dose response kinetic, WST (OD 450 nm). It counts as cell-based, human. The protocol: as §2
FIG. 17A: everolimus dose response kinetic
from top to bottom: no treatment (nott), black circle: 0.001 μM, white square: 0.1 μM, black triangle: 10 μM, bottom white square: 50 μM.
At 10 μM, the dose of everolimus is a cytotoxic dose. • x-axis: time in hours • y-axis: WST (OD 450 nm)

The target in series [9] is T1, PiT1 (human, UniProt Q8WUM9 1-679).
T1 construct: whole, on cells
T1 sequence: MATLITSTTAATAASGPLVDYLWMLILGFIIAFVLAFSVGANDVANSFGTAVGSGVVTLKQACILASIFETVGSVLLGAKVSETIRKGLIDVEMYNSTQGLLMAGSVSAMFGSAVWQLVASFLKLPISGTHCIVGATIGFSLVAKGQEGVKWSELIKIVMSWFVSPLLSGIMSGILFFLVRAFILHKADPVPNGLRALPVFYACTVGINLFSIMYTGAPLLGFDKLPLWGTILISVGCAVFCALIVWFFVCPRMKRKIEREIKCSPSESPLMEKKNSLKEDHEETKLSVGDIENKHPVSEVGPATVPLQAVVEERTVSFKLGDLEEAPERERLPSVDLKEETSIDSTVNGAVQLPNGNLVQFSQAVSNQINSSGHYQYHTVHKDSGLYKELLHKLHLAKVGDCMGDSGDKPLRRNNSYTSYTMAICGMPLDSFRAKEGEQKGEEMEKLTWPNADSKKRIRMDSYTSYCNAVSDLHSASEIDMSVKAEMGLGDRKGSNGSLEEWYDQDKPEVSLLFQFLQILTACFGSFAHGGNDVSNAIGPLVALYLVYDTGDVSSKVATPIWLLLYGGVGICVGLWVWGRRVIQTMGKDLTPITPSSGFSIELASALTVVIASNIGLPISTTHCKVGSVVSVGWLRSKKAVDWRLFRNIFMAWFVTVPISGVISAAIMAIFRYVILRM
Description: flow cytometry, RBD-Fc labelling of viable human breast cancer xenograft cells (HBCx-3, -4A, -8, -24, -30), read out in MESF.

Series [10] has as its target T2, Glut1 (human, UniProt P11166 1-492).
T2 construct: whole, on cells; also called glucose transporter GLUT-1
T2 sequence: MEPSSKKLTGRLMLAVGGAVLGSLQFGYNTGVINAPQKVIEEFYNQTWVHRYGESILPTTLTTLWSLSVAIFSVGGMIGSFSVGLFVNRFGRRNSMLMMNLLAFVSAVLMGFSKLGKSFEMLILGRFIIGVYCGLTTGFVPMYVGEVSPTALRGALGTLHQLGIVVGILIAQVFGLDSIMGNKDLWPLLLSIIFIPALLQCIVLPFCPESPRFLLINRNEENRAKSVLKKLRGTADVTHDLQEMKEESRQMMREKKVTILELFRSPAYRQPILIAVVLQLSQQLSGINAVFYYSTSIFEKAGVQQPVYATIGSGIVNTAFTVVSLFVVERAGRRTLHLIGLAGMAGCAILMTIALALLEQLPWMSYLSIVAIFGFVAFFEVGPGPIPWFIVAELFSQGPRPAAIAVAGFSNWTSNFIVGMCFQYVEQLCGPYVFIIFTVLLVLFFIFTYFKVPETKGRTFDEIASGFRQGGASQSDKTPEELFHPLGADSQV
The description is as above.

[11] abbreviates: 24 and 48 h, both doses (50 and 100 μM).
[12] abbreviates: everolimus, HBCx-4A line on plastic.

For the molecule `N.N.[Cl][Pt][Cl]` [cisplatin, Cisplatin], in series [1], the “toxicity (cell viability %)” value is given as “dose dependent toxicity”. This molecule also registered a cytostatic dose in series [2] of 55 µM. Also, the “response of the model to treatment” value in series [3] (HBCx-4A, 6 mg/kg i.p.) was “non-responsive”; in series [3] (HBCx-8, 6 mg/kg i.p.), “responsive”; in series [3] (HBCx-16, 6 mg/kg i.p.), “responsive”; in series [3] (HBCx-17, 6 mg/kg i.p.) it was “responsive”. For the same molecule, the “expression of FeLVC.RBD” value in series [3] (non responsive model (HBCx-4A), 72 h post treatment, 6 mg/kg i.p.) is “increase”; in [3] (responsive model HBCx-16, 72 h post treatment, 6 mg/kg i.p.), “decrease”. Moreover, the “expression of BLV.RBD” value in series [3] (responsive and non responsive models, 72 h post treatment, 6 mg/kg i.p.) is “no difference”. Besides, in series [4] (100 μM vs 50 μM), the “AmphoMLV.RBD expression at 100 μM compared with 50 μM” value was “higher than at 50 μM”. Further, in [4] (100 μM vs 50 μM), the “RD114.RBD expression at 100 μM compared with 50 μM” value is “higher than at 50 μM”. In addition, in series [4] (setting [11]), the “expression of AmphoMLV.RBD (MFI)” value was “increased”. Further, in series [4] (setting [11]), the “expression of RD114.RBD (MFI)” value was “increased”. Further, the “expression of PERV-A.RBD (MFI)” value in [4] (48 h, both doses (50 and 100 μM)) is listed as “increased”.
In the case of `CC(=O)O[C@@]12CO[C@@H]1C[C@H](O)[C@@]1(C)C(=O)[C@H](O)C3=C(C)[C@@H](OC(=O)[C@H](O)[C@@H](NC(=O)OC(C)(C)C)c4ccccc4)C[C@@](O)([C@@H](OC(=O)c4ccccc4)[C@H]21)C3(C)C` [docetaxel, Docetaxel], the “toxicity (cell viability %)” value in [1] is “dose dependent toxicity”.
As for `CO[C@H]1C[C@@H]2CC[C@@H](C)[C@@](O)(O2)C(=O)C(=O)N2CCCC[C@H]2C(=O)O[C@H]([C@H](C)C[C@@H]2CC[C@@H](OCCO)[C@H](OC)C2)CC(=O)[C@H](C)/C=C(\C)[C@@H](O)[C@@H](OC)C(=O)[C@H](C)C[C@H](C)/C=C/C=C/C=C/1C` [everolimus], the “response of RBDs (MESF)” value in series [5] was “time and dose dependant”. In series [6], the “variation of Ampho.RBD expression” value was “vary later”, the “variation of FeLVC.RBD expression” value is reported as “vary at the beginning of the treatment”, the “variation of RD114.RBD expression” value was “higher than the one of Ampho” and the “variation of Xeno.RBD expression” value is recorded as “vary at the beginning of the treatment”. Also, in [6] (Xeno, Ampho, FeLVC, RD114 RBDs), the “expression of RBDs with the treatment” value is listed as “varies significantly”. For the same molecule, the “response of the model to treatment” value in series [7] is listed as “responsive”. The “effect on the line at 0.001 μM” value in series [8] (everolimus 0.001 μM) is “proliferation of the line”. In series [8] (setting [12]), this molecule displayed a cytostatic dose of 0.1 µM and a cytotoxic dose of 10 µM.

B1: Ko.RBD.mFC immunoadhesin (KoRV SU receptor binding domain fused to mouse IgG Fc) (Fc fusion)
chain: NQQHNNPHQPMTLTWQVLSQTGSVVWEKKAVEPPWTWWPSLEPDVCALVAGLESWDIPELTASASQQARPPDSNYEHAYNQITWGTLGCSYPRARTRIARSQFYVCPRDGRSLSEARRCGGLESLYCKEWGCETAGTAYWQPRSSWDLITVGQGHPTGTCERTGWCNPLKIEFTEPGKRFRNWLQGRTWGLRFYVTGHPGVQLTIRLVITSPPPVVVG
notes: also called KoRV.RBD-Mfc; KoRV.RBD.MFC; not shown: mouse IgG Fc fragment
Consider B1, for which the binding result in [9] is “binds”.

B2: H2.RBD.mFC immunoadhesin (HTLV-2 SU receptor binding domain fused to mouse IgG Fc) (Fc fusion)
chain: QQSRCTLTVGISSYHSSPCSPTQPVCTWNLDLNSLTTDQRLHPPCPNLITYSGFHKTYSLYLFPHWIKKPNRQGLGYYSPSYNDPCSLQCPYLGCQSWTCPYTGPVSSPSWKFHSDVNFTQEVSQVSLRLHFSKCGSSMTLLVDAPGYDPLWFITSEPTQ
notes: also called HTLV-2.RBD-Mfc; RBD derived from HTLV-2; not shown: mouse IgG Fc fragment
B2: the binding result in [10] is listed as “binds”.

The record behind these values is patent publication US20150099653A1, “PROCESS OF DIAGNOSTIC, PROGNOSTIC AND THERAPEUTIC MONITORING OF SOLID TUMORS” (CENTRE NATIONAL DE LA RECHERCHE SCIENTIFIQUE, priority 2011, published 2015).
